The source of these data is PMC7408396, “IPEC-J2 rMdr1a, a New Cell Line with Functional Expression of Rat P-glycoprotein Encoded by Rat Mdr1a for Drug Screening Purposes” (Pharmaceutics, 2020).

For data set [1], the target named is T1, human P-gp (Homo sapiens, UniProt P08183). Set-up: expressed in transfected cells; host or cells: IPEC-J2 (porcine intestinal epithelial cells), previously established IPEC-J2 MDR1 line; method as in PMID 27194478. The settings on record: MDCK II MDR1 cell monolayers; cited from earlier work.
On the set-up of data set [2]: method as in PMID 27194478. The settings on record: murine / rodent animal models; cited from earlier work.
Data set [3] addresses T1, human P-gp. The settings on record: IPEC-J2 MDR1 cells overexpressing human P-gp; cited from earlier work.
Data set [4] in a line: Bidirectional transport across IPEC-J2 wild-type (WT) cell monolayers. The data set is classed as in vitro ADME, porcine. The settings on record: pig, pH 7.4, mean ± SEM. The protocol:
(§1) The cell monolayers were washed and pre-incubated in transport buffer consisting of 10 mM HEPES, 0.05% BSA and 0.038% sodium bicarbonate in HBSS pH 7.4 for 15 min at 37 °C on a shaking table (Unimax 2010, Heidolph, Schwabach, Germany) with a rotation of 75–90 rpm. The buffer was removed, and the transport experiments were initiated by the addition of donor solution containing radio-labelled compound in transport buffer in a concentration of 0.5 or 1 μ Ci/mL to either the apical or the basolateral chamber. […] Receiver samples were collected after 15, 30, 45, 60, 90 and 120 min from the basolateral (100 µL) or the apical chamber (50 µL), respectively.
(§2) Based on data from transport experiments, the apparent permeability coefficients (Papp) were calculated using Equation (1):(1) Papp = J/C0 = Qt/C0At where J denotes the steady-state flux (nmol·cm^−2·min^−1), C0 is the initial concentration in the donor compartment, A is the cross-sectional area of the permeable inserts (1.13 cm^2) and Qt represents the accumulated amount of drug in the receiver compartment at time t in minutes (corrected for the dilution arising from replacement of the sampled volume with blank transport buffer).

The target in data set [5] is T2, P-gp (human MDR1) (Homo sapiens, UniProt P08183).
T2 construct: expressed in transfected cells; host or cells: IPEC-J2 (porcine intestinal epithelial cells), previously established IPEC-J2 MDR1 line
The data set can be described thus: Bidirectional transport across IPEC-J2 MDR1 cell monolayers. The data set is classed as in vitro ADME. The settings on record: for Papp A→B at 120 min / Papp B→A at 120 min: pH 7.4, Figure 5, mean ± SEM; for Papp A→B at 120 min: read-out: apparent permeability A–B; for Papp B→A at 120 min: read-out: apparent permeability B–A; for efflux ratio at 120 min: pH 7.4, Figure 5 comparison series. The protocol: as §1, §2

The subject of data set [6] is P-gp (rat Mdr1a). Briefly: in vitro. The settings on record: for efflux ratio at 120 min: pH 7.4, efflux ratio, Figure 5 comparison series.
For data set [7], the system named is mouse Mdr1a. Further details: method as in PMID 17045309. The settings on record: mouse Mdr1a-transfected LLC-PK1 and MDCK monolayers; cited from earlier work.
Data set [8] deals with T1, human P-gp. Further details: expressed in transfected cells; method as in PMID 17045309. The settings on record: cell monolayers overexpressing human P-gp; cited from earlier work.
The subject of data set [9] is P-gp (rat Mdr1a and human MDR1). The data set can be described thus: in vitro. The settings on record: human, pH 7.4, apparent permeability values (span over both directions), A–B and B–A, across both IPEC-J2 rMdr1a and IPEC-J2 MDR1 monolayers.
Data set [10] deals with rMDR1a-transfected cells. The data set can be described thus: Puromycin selection of rMdr1a-transfected IPEC-J2 cells. The settings on record: 2 μg/mL puromycin. The data set is classed as cell-based, porcine. The protocol:
(§3) The rat Mdr1a cDNA, codon-optimized for expression in Sus scrofa, was synthesized by Geneart (Regensburg, Germany) and inserted in the pcDNA3.1 (+) cloning vector under control of a cytomegalovirus (CMV) promoter (see Supplemental Figure S1) and purchased from Geneart (Regensburg, Germany). […] Cells were seeded on permeable Transwell® inserts (1.13 cm^2 surface area, 0.4 µm pore size) at a density of 4 × 10^4 cells/insert and cultured for 15–18 days (with culture medium change three times per week) prior to experimentation.

The test system of data set [11] is IPEC-J2 mock cells. The data set can be described thus: Puromycin selection of IPEC-J2 mock cells. The format is cell-based, porcine. The settings on record: 2 μg/mL puromycin. The protocol: as §3
For data set [12], the system named is rat Mdr1a. Further details: method as in PMID 16779700. The settings on record: LLC-PK1 cells transfected with rat Mdr1a; cited from earlier work.
For data set [13], the system named is rat Mdr1a P-gp. The settings on record: IPEC-J2 rMdr1a monolayers.
Data set [14] relates to human MDR1. Further details: method as in PMID 16779700. The settings on record: LLC-PK1 cells transfected with human MDR1; cited from earlier work.
Data set [15] relates to IPEC-J2 mock cells. Briefly: Bidirectional transport across IPEC-J2 mock cell monolayers (empty pcDNA 3.1(+) vector). The settings on record: 0.4 µM zosuquidar, Supplemental Figure S2.
The mark [16] stands for this setting: pH 7.4, apparent permeability A–B, IPEC-J2 rMdr1a monolayers, Figure 5, mean ± SEM.

Structures are written as SMILES. Bounds are passed on as bounds.

Broadly, the Papp is a coefficient for how fast a substance crosses the barrier. Broadly, the efflux ratio is a quotient of directional permeabilities that is used to spot active efflux.

T2 sequence (P08183 whole entry): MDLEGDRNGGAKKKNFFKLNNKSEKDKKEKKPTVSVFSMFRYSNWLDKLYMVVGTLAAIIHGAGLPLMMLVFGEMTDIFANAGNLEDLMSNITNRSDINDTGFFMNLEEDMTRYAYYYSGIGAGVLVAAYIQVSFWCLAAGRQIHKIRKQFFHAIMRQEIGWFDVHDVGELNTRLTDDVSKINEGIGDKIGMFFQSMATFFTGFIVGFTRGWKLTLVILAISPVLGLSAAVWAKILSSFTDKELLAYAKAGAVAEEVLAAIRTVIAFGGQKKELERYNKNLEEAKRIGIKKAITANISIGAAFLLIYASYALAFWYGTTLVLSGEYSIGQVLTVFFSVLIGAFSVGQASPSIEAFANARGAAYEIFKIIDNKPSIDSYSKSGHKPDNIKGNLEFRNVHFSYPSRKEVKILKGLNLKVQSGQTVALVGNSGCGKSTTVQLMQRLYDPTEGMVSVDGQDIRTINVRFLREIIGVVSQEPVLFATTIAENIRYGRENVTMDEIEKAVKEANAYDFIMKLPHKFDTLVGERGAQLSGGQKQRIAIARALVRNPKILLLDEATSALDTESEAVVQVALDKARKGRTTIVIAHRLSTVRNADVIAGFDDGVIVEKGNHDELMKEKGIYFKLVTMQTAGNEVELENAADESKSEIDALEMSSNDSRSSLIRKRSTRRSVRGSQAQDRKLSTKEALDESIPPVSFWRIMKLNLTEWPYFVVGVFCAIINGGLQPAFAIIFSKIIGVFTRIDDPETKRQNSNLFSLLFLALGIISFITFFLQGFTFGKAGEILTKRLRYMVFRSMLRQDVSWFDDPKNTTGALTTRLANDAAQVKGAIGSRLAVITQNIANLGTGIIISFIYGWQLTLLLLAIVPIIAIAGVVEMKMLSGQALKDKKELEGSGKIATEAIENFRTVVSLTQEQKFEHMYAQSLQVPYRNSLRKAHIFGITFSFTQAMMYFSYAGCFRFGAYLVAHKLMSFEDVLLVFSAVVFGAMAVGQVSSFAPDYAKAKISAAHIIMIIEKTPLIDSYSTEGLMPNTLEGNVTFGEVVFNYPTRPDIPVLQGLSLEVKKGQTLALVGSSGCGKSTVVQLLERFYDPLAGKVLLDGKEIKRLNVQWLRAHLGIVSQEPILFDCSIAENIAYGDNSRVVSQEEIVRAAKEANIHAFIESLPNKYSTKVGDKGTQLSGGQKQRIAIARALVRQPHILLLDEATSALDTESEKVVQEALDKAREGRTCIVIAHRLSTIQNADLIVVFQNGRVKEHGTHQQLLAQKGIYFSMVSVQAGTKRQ
T1 sequence (P08183 whole entry): as above

Regarding `CNCC[C@@H](Oc1ccccc1C)c1ccccc1` [atomoxetine], the “efflux ratio (ER)” value in data set [1] is on record as more than 3. In addition, in data set [2], the “Kp,uu (unbound drug concentration in CNS relative to plasma)” value is given as more than 2.

With `CN(C)CCCC1(c2ccc(F)cc2)OCc2cc(C#N)ccc21` (stereo not shown) [citalopram], the P-gp substrate identification entry in data set [3] is reported as “P-gp substrates”.

Regarding `C[C@H]1O[C@@H](O[C@H]2[C@@H](O)C[C@H](O[C@H]3[C@@H](O)C[C@H](O[C@H]4CC[C@@]5(C)[C@H](CC[C@@H]6[C@@H]5C[C@@H](O)[C@]5(C)[C@@H](C7=CC(=O)OC7)CC[C@]65O)C4)O[C@@H]3C)O[C@@H]2C)C[C@H](O)[C@@H]1O` [digoxin], the Papp A→B at 120 min in data set [4] (read-out: PA-B (apparent permeability, apical to basolateral)) is 0.05 ± 0.05 ×10⁻⁶ cm/s; in [5], 0.28 ± 0.03 ×10⁻⁶ cm/s; in data set [6] (setting [16]) it was 0.35 ± 0.03 ×10⁻⁶ cm/s; in data set [6] (pH 7.4, permeability in the A–B direction, early passages (5–7)), 0.37 ± 0.1 ×10⁻⁶ cm/s; in data set [6] (pH 7.4, permeability in the A–B direction, late passages (14–16)), 0.68 ± 0.62 ×10⁻⁶ cm/s. Further, the Papp B→A at 120 min in data set [4] (read-out: PB-A (apparent permeability, basolateral to apical)) was 0.13 ± 0.17 ×10⁻⁶ cm/s. The apparent permeability (Papp) at 120 min in [6] (pH 7.4, PB-A (apparent permeability in the efflux direction), late passages (14–16)) was 16 ± 1 ×10⁻⁶ cm/s.

In the case of `CC[C@@H](C(N)=O)N1CCCC1=O` [levetiracetam], the polarized transport result in data set [7] is “showed polarized transport”; in data set [8], “no polarized transport could be observed”.

Take `OC[C@@H](O)[C@@H](O)[C@H](O)[C@H](O)CO` [mannitol]: the Papp A→B at 120 min worked out at 0.25 ± 0.02 ×10⁻⁶ cm/s in data set [5] and 0.33 ± 0.12 ×10⁻⁶ cm/s in data set [6] (setting [16]). The values for the Papp B→A at 120 min in [5] and in [6] (pH 7.4) were 0.37 ± 0.04 ×10⁻⁶ cm/s and 0.44 ± 0.11 ×10⁻⁶ cm/s, respectively. For the same compound, the efflux ratio at 120 min in data set [5] is 1.4; in [6] (IPEC-J2 rMdr1a monolayers) it was 1.5. Besides, the apparent permeability coefficient (Papp) at 120 min is approximately 0.3 ×10⁻⁶ cm/s in data set [6] (pH 7.4, paracellular permeability, IPEC-J2 rMdr1a monolayers, conclusion summary) and 0.25 to 0.44 ×10⁻⁶ cm/s in [9].

Turning to `Cc1cc2c(s1)Nc1ccccc1N=C2N1CCN(C)CC1` [olanzapine], in [5], the Papp A→B at 120 min came to 23 ± 4 ×10⁻⁶ cm/s and the Papp B→A at 120 min worked out at 40 ± 3 ×10⁻⁶ cm/s. Also, in data set [6] (pH 7.4), the Papp A→B at 120 min came to 24 ± 3 ×10⁻⁶ cm/s and the Papp B→A at 120 min worked out at 44 ± 3 ×10⁻⁶ cm/s.

In the case of `OCCN1CCN(CCCN2c3ccccc3Sc3ccc(Cl)cc32)CC1` [perphenazine], the “efflux ratio (ER)” value in data set [1] is more than 3. Further, the “Kp,uu (unbound drug concentration in CNS relative to plasma)” value in data set [2] was more than 2.

As for `O=C1NC(=O)C(c2ccccc2)(c2ccccc2)N1` [phenytoin], the polarized transport result in data set [7] is given as “showed polarized transport”; in [8] it was “no polarized transport could be observed”.

`COc1ccc(C[C@H](N)C(=O)N[C@H]2[C@@H](O)[C@H](n3cnc4c(N(C)C)ncnc43)O[C@@H]2CO)cc1` [puromycin]: the “cell survival under selection” value was “survived the treatment” in [10] and “died within three days” in data set [11].

For the compound `CN1CCN(CCCN2c3ccccc3Sc3ccc(C(F)(F)F)cc32)CC1` [trifluoperazine], in [1], the “efflux ratio (ER)” value is given as more than 3. Moreover, the “Kp,uu (unbound drug concentration in CNS relative to plasma)” value in data set [2] is given as more than 2.

`CC[C@]1(O)C[C@@H]2CN(CCc3c([nH]c4ccccc34)[C@@](C(=O)OC)(c3cc4c(cc3OC)N(C)[C@H]3[C@@](O)(C(=O)OC)[C@H](OC(C)=O)[C@]5(CC)C=CCN6CC[C@]43[C@@H]65)C2)C1` [vinblastine]: the efflux ratio in [12] was 18.4; in data set [13] (Figure 5 comparison series), 13; in data set [14] it was 12.5. Further, the Papp A→B at 120 min in data set [5] amounted to 1.5 ± 0.2 ×10⁻⁶ cm/s; in [6] (setting [16]), 1.6 ± 0.2 ×10⁻⁶ cm/s. The figures for the Papp B→A at 120 min in data set [5] and in data set [6] (pH 7.4) were 19 ± 6 ×10⁻⁶ cm/s and 20 ± 5 ×10⁻⁶ cm/s, respectively. Further, the efflux ratio at 120 min in [5] is 12.4; in data set [6] (IPEC-J2 rMdr1a monolayers), 12.8.

Turning to `O[C@@H](COc1cccc2ncccc12)CN1CCN([C@@H]2c3ccccc3[C@@H]3[C@H](c4ccccc42)C3(F)F)CC1` [zosuquidar], in [15], the “effect on digoxin transport” value is reported as “did not affect digoxin transport”. Also, the “effect on efflux transport of digoxin” value in [13] (0.4 µM zosuquidar) is “completely blocked”.
